From patent publication US20250018014A1, “METHOD FOR TREATING AND/OR PREVENTING REGNASE-1-RELATED DISEASE” (OSAKA UNIVERSITY, priority 2018, published 2025)
Read-outs that look alike come from different tables or passages of the source. Residues, ends and D or L forms follow the SMILES beside them.

Assays:
Format in all cases: biochemical
[1] = target: T1, FL_Reg1 (full-length human Regnase-1) phosphorylation by TBK1 (Homo sapiens, UniProt Q5D1E8); experiment: Regnase-1 phosphorylation inhibition by compounds (AlphaScreen), TBK1, full-length Regnase-1
T1 construct: made in house; host or cells: Expi293 cells
T1 sequence (Q5D1E8 1-599): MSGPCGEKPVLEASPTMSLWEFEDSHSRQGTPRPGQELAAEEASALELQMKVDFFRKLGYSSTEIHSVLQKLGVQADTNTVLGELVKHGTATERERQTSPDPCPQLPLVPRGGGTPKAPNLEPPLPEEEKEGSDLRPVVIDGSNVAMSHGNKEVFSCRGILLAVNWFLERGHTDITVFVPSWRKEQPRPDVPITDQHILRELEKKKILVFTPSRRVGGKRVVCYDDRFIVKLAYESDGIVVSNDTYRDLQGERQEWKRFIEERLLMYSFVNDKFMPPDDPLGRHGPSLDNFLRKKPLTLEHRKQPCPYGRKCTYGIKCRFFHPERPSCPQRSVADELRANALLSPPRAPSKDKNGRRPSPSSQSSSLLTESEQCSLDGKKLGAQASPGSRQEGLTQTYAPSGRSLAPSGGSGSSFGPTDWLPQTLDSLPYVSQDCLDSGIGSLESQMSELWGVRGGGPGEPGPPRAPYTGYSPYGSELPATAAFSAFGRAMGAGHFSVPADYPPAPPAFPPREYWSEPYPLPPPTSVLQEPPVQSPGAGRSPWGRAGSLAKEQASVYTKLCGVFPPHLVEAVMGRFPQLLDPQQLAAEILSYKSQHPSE
Method in brief: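 FLAG/BirA-tagged human Regnase-1 constructs (full-length, 1–546 or 301–599), expressed in Expi293 cells, were used at 2 nM with compound and phosphorylated by IKKβ or TBK1 with 10 μM ATP, DTT, vanadate and MnCl2 for 2 h at room temperature. Phospho-Regnase-1 was read by AlphaScreen; IC50 came from % inhibition curves normalised to DMSO and Regnase-1-alone signals.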

[2] = target: T2, ΔCTD_Reg1 (amino acids 1 to 546 of human Regnase-1) phosphorylation by IKKβ (Homo sapiens, UniProt Q5D1E8); experiment: Regnase-1 phosphorylation inhibition by compounds (AlphaScreen), IKKβ, CTD-deficient Regnase-1
T2 construct: made in house; host or cells: Expi293 cells
T2 sequence (Q5D1E8 1-546): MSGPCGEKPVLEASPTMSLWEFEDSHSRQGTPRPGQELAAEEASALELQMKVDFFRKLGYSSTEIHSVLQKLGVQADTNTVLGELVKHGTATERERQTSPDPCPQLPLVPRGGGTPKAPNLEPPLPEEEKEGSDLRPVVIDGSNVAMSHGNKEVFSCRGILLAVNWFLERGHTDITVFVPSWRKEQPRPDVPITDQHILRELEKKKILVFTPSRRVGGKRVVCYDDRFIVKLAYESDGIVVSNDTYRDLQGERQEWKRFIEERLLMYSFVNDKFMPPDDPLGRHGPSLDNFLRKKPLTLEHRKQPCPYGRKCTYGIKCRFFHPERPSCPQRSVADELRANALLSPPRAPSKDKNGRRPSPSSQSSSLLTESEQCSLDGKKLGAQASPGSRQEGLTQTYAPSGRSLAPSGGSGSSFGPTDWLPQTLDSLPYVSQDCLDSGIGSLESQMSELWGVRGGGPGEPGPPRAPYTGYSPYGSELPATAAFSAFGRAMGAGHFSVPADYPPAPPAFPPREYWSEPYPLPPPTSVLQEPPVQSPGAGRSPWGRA
Procedure: (§1) Among the full-length human Regnase-1 sequence, the 1st to 546th amino acid sequence was prepared and made into a construct having a FLAG tag on the N-terminal side and a biotin ligase BirA recognition sequence on the C-terminal side (herein, a Regnase-1 lacking the C-terminal domain of Regnase-1 (amino acids 547 to 599 in the case of SEQ ID NO: 2) is referred to as “ΔCTD_Reg1”. “ΔCTD_Reg1” is different from “Regnase-1ΔCTD”, which is a C-terminal domain deletion variant resulting from a frameshift mutation caused by a 1 bp deletion at codon 517, as prepared in Example 13). In addition, the sequence from amino acids 301 to 599 of the full-length human Regnase-1 sequence was designated as C-terminal Regnase-1, and a construct having a FLAG tag on the N-terminal side and a recognition sequence for biotin ligase BirA on the C-terminal side was prepared (Reg1_301-599). The above-mentioned Regnase-1 was expressed in mammalian Expi293 cells, purified with FLAG M2 agarose, and isolated by gel filtration chromatography. When biotinylation was required, methods of nonpatent documents (BMC biotechnology, 2008,8,41; and Protein Science, 1999,8,921-929) were used.
(§2) Using Kinase assay buffer III (manufactured by SignalChem) supplemented with 2 mM DTT, 100 μM sodium vanadate, and 2 mM manganese chloride, kinase (IKKβ (manufactured by SignalChem) or TBK1 (manufactured by SignalChem)) and Regnase-1 were reacted in the presence of 10 μM ATP at room temperature for 2 hours to perform a phosphorylation reaction.
(§3) Phosphorylated Regnase-1 was detected by the AlphaScreen system. After each of the above-mentioned phosphorylated Regnase-1 antibodies was added and reacted at room temperature for one hour, anti-FLAG AlphaLISA Acceptor Beads (manufactured by PerkinElmer) and Protein A AlphaScreen Donor Beads (manufactured by PerkinElmer) were added, and EnVision (manufactured by PerkinElmer) was used to measure the excited luminescence. As a result, phosphorylated Regnase-1 produced by the phosphorylation reaction by kinase was specifically detected, and signals were confirmed to be enhanced in a manner dependent on Regnase-1 and kinase concentrations (FIG. 24).
(§4) After mixing 2 nM of the above-mentioned Regnase-1 and the compound, phosphorylated Regnase-1 produced by the phosphorylation reaction was detected by the AlphaScreen system. As the results, the inhibition rate was calculated from the signals obtained when adding the compound at each concentration, by defining the signal obtained with Regnase-1 alone to be 100% inhibition rate, and the signal obtained when the same amount of solvent (DMSO) is added in place of the compound as 0% inhibition rate. The 50% inhibition concentration (μM) was calculated from the obtained dose response curve (Table 11).

[3] = target: T3, ΔCTD_Reg1 (amino acids 1 to 546 of human Regnase-1) phosphorylation by TBK1 (Homo sapiens, UniProt Q5D1E8); experiment: Regnase-1 phosphorylation inhibition by compounds (AlphaScreen), TBK1, CTD-deficient Regnase-1
T3 construct: made in house; host or cells: Expi293 cells
T3 sequence (Q5D1E8 1-546): T2 sequence (Q5D1E8 1-546)
Source text: The full-length sequence of human Regnase-1 (UniProt ID: Q5D1E8) was used to prepare a construct having a FLAG tag on the N-terminal side and a recognition sequence for biotin ligase BirA on the C-terminal side (FL_Reg1) as a target protein. The above-mentioned Regnase-1 was expressed in mammalian Expi293 cells, purified with FLAG M2 agarose, and isolated by gel filtration chromatography. When biotinylation was required, methods from nonpatent documents (BMC biotechnology, 2008,8,41; and Protein Science, 1999,8,921-929) were used.
as §1, §2, §3, §4

[4] = Table 11, 2 nM Regnase-1, AlphaScreen, read-out: 50% inhibition concentration, Regnase-1 phosphorylation, FL_Reg1, TBK1
[5] = Table 11, 2 nM Regnase-1, AlphaScreen, read-out: 50% inhibition concentration, Regnase-1 phosphorylation, ΔCTD_Reg1, IKKβ
[6] = Table 14, phosphorylation by IKKβ, read-out: Phosphorylation inhibition ΔCTD_Reg1, 50% inhibition concentration (IKKβ)
[7] = Table 11, 2 nM Regnase-1, AlphaScreen, read-out: 50% inhibition concentration, Regnase-1 phosphorylation, ΔCTD_Reg1, TBK1
[8] = Table 13, phosphorylation by TBK1, read-out: Phosphorylation inhibition ΔCTD_Reg1, 50% inhibition concentration (TBK1)
[9] = Table 13, phosphorylation by TBK1, read-out: Phosphorylation inhibition FL_Reg1, 50% inhibition concentration (TBK1)

SMILES | IC50 [1, 4] | IC50 [2, 5] | IC50 [2, 6] | IC50 [3, 7] | IC50 [3, 8] | IC50 [1, 9]
CC[C@H](C)[C@@H]1NC(=O)[C@H](CC(=O)O)NC(=O)[C@H](C)N(C)C(=O)C[C@@H](C(=O)N2CCCC2)NC(=O)[C@H](Cc2c[nH]c3ccccc23)NC(=O)[C@H](CC(=O)O)NC(=O)[C@H](Cc2c[nH]c3ccccc23)NC(=O)[C@H](Cc2ccc(O)cc2)NC(=O)[C@H](CC(=O)O)NC(=O)[C@H](Cc2ccccc2)NC(=O)[C@H](Cc2c[nH]c3ccccc23)NC1=O [PP17] (HELM PEPTIDE1{[meA].D.I.W.F.D.Y.W.D.W.D.[C1CCN([*:1])C1]}$PEPTIDE1,PEPTIDE1,1:R1-11:R3$$$V2.0) |  |  | 0.3 µM |  | 0.3 µM | < 0.06 µM
CC[C@H](C)[C@@H]1NC(=O)[C@H](CCCCN)NC(=O)[C@H](Cc2ccccc2)NC(=O)[C@H](Cc2c[nH]c3ccccc23)NC(=O)[C@H](CO)NC(=O)[C@H](CO)NC(=O)[C@H](CC(N)=O)NC(=O)[C@@H]2CCCN2C(=O)[C@@H](C)N(C)C(=O)C[C@@H](C(=O)N2CCCC2)NC(=O)[C@H](Cc2c[nH]c3ccccc23)NC1=O [PP6] (HELM PEPTIDE1{[C[C@H](C(=O)[*:2])N(C)[*:1]].P.N.S.S.W.F.K.I.W.D.[C1CCN([*:1])C1]}$PEPTIDE1,PEPTIDE1,1:R1-11:R3$$$V2.0) | 13.1 µM | 20.3 µM |  | 14.5 µM |  | 
CC[C@H](C)[C@@H]1NC(=O)[C@H](CC(=O)O)NC(=O)[C@H](C)N(C)C(=O)C[C@@H](C(=O)N2CCCC2)NC(=O)[C@H](Cc2ccc(O)cc2)NC(=O)[C@H](CC(=O)O)NC(=O)[C@H](Cc2c[nH]c3ccccc23)NC(=O)[C@H](Cc2ccc(O)cc2)NC(=O)[C@H](CC(=O)O)NC(=O)[C@H](Cc2ccccc2)NC(=O)[C@H](Cc2c[nH]c3ccccc23)NC1=O [PP18] (HELM PEPTIDE1{[meA].D.I.W.F.D.Y.W.D.Y.D.[C1CCN([*:1])C1]}$PEPTIDE1,PEPTIDE1,1:R1-11:R3$$$V2.0) |  |  | 0.2 µM |  | 1.8 µM | 0.6 µM
CC[C@H](C)[C@@H]1NC(=O)[C@H](Cc2ccc(O)cc2)NC(=O)[C@H](C)N(C)C(=O)C[C@@H](C(=O)N2CCCC2)NC(=O)[C@H](CC(C)C)NC(=O)[C@H](CC(=O)O)NC(=O)CNC(=O)[C@H](Cc2ccccc2)NC(=O)[C@H](Cc2ccccc2)NC(=O)[C@H](CC(=O)O)NC(=O)[C@H](Cc2c[nH]c3ccccc23)NC1=O [PP4] (HELM PEPTIDE1{[meA].Y.I.W.D.F.F.G.D.L.D.[C1CCN([*:1])C1]}$PEPTIDE1,PEPTIDE1,1:R1-11:R3$$$V2.0) | 61.9 µM | 8.3 µM |  | 44.9 µM |  | 
CC[C@H](C)[C@@H]1NC(=O)[C@H](CCCNC(=N)N)NC(=O)[C@H](Cc2ccc(O)cc2)NC(=O)[C@H](Cc2c[nH]c3ccccc23)NC(=O)[C@H](C)NC(=O)[C@H](CO)NC(=O)[C@H](C)NC(=O)[C@H](Cc2c[nH]cn2)NC(=O)[C@H](CCCCN)NC(=O)[C@@H](C)N(C)C(=O)C[C@@H](C(=O)N2CCCC2)NC(=O)[C@H](Cc2c[nH]c3ccccc23)NC1=O [PP3] (HELM PEPTIDE1{[C[C@H](C(=O)[*:2])N(C)[*:1]].K.H.A.S.A.W.Y.R.I.W.D.[C1CCN([*:1])C1]}$PEPTIDE1,PEPTIDE1,1:R1-12:R3$$$V2.0) | 3.9 µM | 8.3 µM |  | 5.7 µM |  | 

Further lines, results first:

IC50 [1, 4] | IC50 [2, 5] | IC50 [2, 6] | IC50 [3, 7] | IC50 [3, 8] | IC50 [1, 9] | SMILES
54.5 µM | > 62.1 µM | > 62.1 µM | > 62.1 µM | > 62.1 µM |  | CC(C)[C@@H]1NC(=O)[C@H](CCCCN)NC(=O)[C@H](Cc2ccc(O)cc2)NC(=O)[C@H](Cc2c[nH]c3ccccc23)NC(=O)[C@H](CO)NC(=O)[C@H]([C@@H](C)O)NC(=O)[C@H](C)N(C)C(=O)C[C@@H](C(=O)N2CCCC2)NC(=O)[C@H](CCC(N)=O)NC(=O)CNC(=O)[C@H](Cc2c[nH]c3ccccc23)NC(=O)[C@H](CC(N)=O)NC1=O [PP1] (HELM PEPTIDE1{[meA].T.S.W.Y.K.V.N.W.G.Q.D.[C1CCN([*:1])C1]}$PEPTIDE1,PEPTIDE1,1:R1-12:R3$$$V2.0)
24.2 µM | 20.4 µM |  | 19.1 µM |  |  | CC[C@H](C)[C@@H]1NC(=O)[C@H](CC(N)=O)NC(=O)[C@H](Cc2ccc(O)cc2)NC(=O)[C@H](Cc2c[nH]c3ccccc23)NC(=O)[C@H](C)NC(=O)[C@H](CC(N)=O)NC(=O)[C@H](CO)NC(=O)[C@H](Cc2c[nH]cn2)NC(=O)[C@H](C)N(C)C(=O)C[C@@H](C(=O)N2CCCC2)NC(=O)[C@H](Cc2c[nH]c3ccccc23)NC1=O [PP5] (HELM PEPTIDE1{[meA].H.S.N.A.W.Y.N.I.W.D.[C1CCN([*:1])C1]}$PEPTIDE1,PEPTIDE1,1:R1-11:R3$$$V2.0)
21.7 µM | 14 µM |  | 17.6 µM |  |  | CC[C@H](C)[C@@H]1NC(=O)[C@H](CC(N)=O)NC(=O)[C@H](Cc2ccc(O)cc2)NC(=O)[C@H](Cc2c[nH]c3ccccc23)NC(=O)[C@H](CO)NC(=O)[C@H](CC(N)=O)NC(=O)[C@H](C)NC(=O)[C@H](Cc2ccc(O)cc2)NC(=O)CNC(=O)[C@H](C)N(C)C(=O)C[C@@H](C(=O)N2CCCC2)NC(=O)[C@H](Cc2c[nH]c3ccccc23)NC1=O [PP2] (HELM PEPTIDE1{[meA].G.Y.A.N.S.W.Y.N.I.W.D.[C1CCN([*:1])C1]}$PEPTIDE1,PEPTIDE1,1:R1-12:R3$$$V2.0)
